Measured values taken from patent US4727061A, “Pharmaceutical preparations having diuretic activity” (Rohm GmbH, priority 1984, dated 1988).

Tested on: female Sprague-Dawley rats
Assay: Natriuretic activity in anesthetized, catheterized rats under i.v. saline/fructose infusion (method of Kramer et al.)
Format: in vivo
Settings: 250 micrograms of peptide per rat
Excerpt: In the test protocol employed, female Sprague-Dawley rats weighing from 206 to 250 g were used as test animals. Before the test, the rats were exposed to a normal diet and had free access to food and water. On the day of the test, the rats were anesthetized with methohexital and catheters were inserted in the aorta and the jugular vein and from there through the abdomen in the bladder.
The animals were then placed into individual cages mounted on a scale. A 0.45% saline solution with 2.5% fructose was then administered to them intravenously at a rate ranging from 33 to 62 microliters per minute so that the body weight remained constant. Two hours after the animals had recovered, 15 minute urine collection periods were initiated and continued throughout the test. The diuretic material to be tested was dissolved (at pH 7.4) in the infusion solution, which contained tris HCl as a buffer. In the case of the fractions characterized by natriuresis, 15 minute urine samples were collected until the sodium excretion had again reached the base line, and the rate of infusion was adjusted so that the body weight remained constant. The arterial blood pressure was monitored throughout the test by means of a pressure measuring apparatus (Statham P-23-Db). The sodium and potassium concentrations in serum and urine were monitored by flame photometry.
250 micrograms of the peptide substance to be tested were administered to each rat.
(2) Sodium excretion in treated rats in micromoles per minute per milligram of administered substance of formula I.
(3) Time of maximum activity (tmax) in minutes.
(4) Increase in natriuresis as quotient F=(Na^+ excretion after treatment)/(Na^+ excretion before treatment).

For Gly-Gly, the “(3) Time of maximum activity (tmax)” value was 1.5 to 2.5 h, the “(4) Increase in natriuresis as quotient F = (Na+ excretion after treatment)/(Na+ excretion before treatment)” value was 39.8 and the “(2) Na+ excretion in treated rats” value (treated rats, in the i.v. infusion solution, pH 7.4, 15 minute urine collections) was 14.7 micromoles per minute per mill. For the same substance, the “(2) Q = K+/Na+ in treated rats” value (treated rats, urinary K+/Na+ quotient) was 0.63.
